Where two headings read alike, the source gives them in different places.
How the values were obtained:
Puccinia triticina = experiment: Wheat Brown Rust (PUCCRT) fungicidal activity; format: in vivo; details: for pest or weed control at 100 µg/mL: High Volume (100 ppm); for pest or weed control at 121.5 g/ha: Low Volume (121.5 g/H)
Description: Technical grades of materials were dissolved in acetone, which were then mixed with nine volumes of H2O containing 110 ppm Triton X-100. The fungicide solutions were applied onto wheat seedlings using an automated booth sprayer to run-off. All sprayed plants were allowed to air dry prior to further handling. All fungicides were evaluated using the aforementioned method for their activity vs. all target diseases, unless stated otherwise. Wheat leaf blotch and brown rust activity were also evaluated using track spray applications, in which case the fungicides were formulated as EC formulations, containing 0.1% Trycol 5941 in the spray solutions. Wheat plants (variety Yuma) were grown from seed in a greenhouse in 50% mineral soil/50% soil-less Metro mix until the first leaf was fully emerged, with 7-10 seedlings per pot. These plants were inoculated with an aqueous spore suspension of Puccinia triticina either prior to or after fungicide treatments. After inoculation the plants were kept in a dark dew room at 22° C. with 100% relative humidity overnight to permit spores to germinate and infect the leaf. The plants were then transferred to a greenhouse set at 24° C. for disease to develop. Fungicide formulation, application and disease assessment followed the procedures as described in the Example A.

Zymoseptoria tritici = experiment: Leaf Blotch of Wheat (SEPTTR) fungicidal activity; format: in vivo; details: for pest or weed control at 100 µg/mL: High Volume (100 ppm); for pest or weed control at 121.5 g/ha: Low Volume (121.5 g/H)
Description: Technical grades of materials were dissolved in acetone, which were then mixed with nine volumes of H2O containing 110 ppm Triton X-100. The fungicide solutions were applied onto wheat seedlings using an automated booth sprayer to run-off. All sprayed plants were allowed to air dry prior to further handling. All fungicides were evaluated using the aforementioned method for their activity vs. all target diseases, unless stated otherwise. Wheat leaf blotch and brown rust activity were also evaluated using track spray applications, in which case the fungicides were formulated as EC formulations, containing 0.1% Trycol 5941 in the spray solutions. Wheat plants (variety Yuma) were grown from seed in a greenhouse in 50% mineral soil/50% soil-less Metro mix until the first leaf was fully emerged, with 7-10 seedlings per pot. These plants were inoculated with an aqueous spore suspension of Zymoseptoria tritici either prior to or after fungicide treatments. After inoculation the plants were kept in 100% relative humidity (one day in a dark dew chamber followed by two to three days in a lighted dew chamber at 20° C.) to permit spores to germinate and infect the leaf. The plants were then transferred to a greenhouse set at 20° C. for disease to develop. When disease symptoms were fully expressed on the 1st leaves of untreated plants, infection levels were assessed on a scale of 0 to 100 percent disease severity. Percent disease control was calculated using the ratio of disease severity on treated plants relative to untreated plants.

[1] = 24 h, 1 Day Protectant, read-out: PUCCRT 1DP disease control
[2] = 72 h, 3 Day Curative, read-out: PUCCRT 3DC disease control
[3] = 24 h, 1 Day Protectant, read-out: SEPTTR 1DP disease control
[4] = 72 h, 3 Day Curative, read-out: SEPTTR 3DC disease control

Compound	pest or weed control at 100 µg/mL (Puccinia triticina; [1])	pest or weed control at 100 µg/mL (Puccinia triticina; [2])	pest or weed control at 100 µg/mL (Zymoseptoria tritici; [3])	pest or weed control at 100 µg/mL (Zymoseptoria tritici; [4])	pest or weed control at 121.5 g/ha (Puccinia triticina; [1])	pest or weed control at 121.5 g/ha (Puccinia triticina; [2])	pest or weed control at 121.5 g/ha (Zymoseptoria tritici; [3])	pest or weed control at 121.5 g/ha (Zymoseptoria tritici; [4])
COc1ccnc(C(=O)N[C@H]2COCCC[C@@H](CCC(C)C)[C@H](C)OC2=O)c1O [Compound 112]	< 80%	< 80%	< 80%	< 80%				
CCCCCO[C@H]1[C@H](C)OC(=O)[C@@H](NC(=O)c2nccc(OC)c2OCOC(C)=O)CCCC[C@@H]1OC(=O)c1ccccc1 [Compound 15]					> 80%	< 80%	> 80%	> 80%
COc1ccc(C[C@H]2CCOC[C@H](NC(=O)c3nccc(OC)c3OCOC(=O)C(C)C)C(=O)O[C@@H](C)[C@@H]2Oc2ccccc2)cc1 [Compound 67, ((4-methoxy-2-(((3S,8S,9R,10S)-8-(4-methoxybenzyl)-10-methyl-2-oxo-9-phenoxy-1,5-dioxecan-3-yl)carbamoyl)pyridin-3-yl)oxy)methyl isobutyrate]					> 80%	< 80%	> 80%	< 80%
COc1ccnc(C(=O)N[C@H]2CCOC[C@H](Oc3ccccc3)[C@@H](Oc3ccccc3)[C@H](C)OC2=O)c1OCOC(C)=O [Compound 37]					> 80%	> 80%	> 80%	> 80%
COc1ccnc(C(=O)N[C@H]2CCCC[C@H](Cc3ccccc3)[C@@H](Oc3ccccc3)[C@H](C)OC2=O)c1OCOC(C)=O [Compound 62]					> 80%	< 80%	> 80%	> 80%
CCCO[C@@H]1[C@@H](CC2CCCC2)CCCC[C@H](NC(=O)c2nccc(OC)c2OC(C)=O)C(=O)O[C@H]1C [Compound 58]					> 80%	< 80%	< 80%	< 80%
CCC[C@H]1CCCC[C@H](NC(=O)c2nccc(OC)c2OCOC(C)=O)C(=O)O[C@@H](C)[C@@H]1OC(=O)C(C)C [Compound 31]					> 80%	< 80%	< 80%	< 80%
CCC[C@H]1CCCC[C@H](NC(=O)c2nccc(OC)c2OCOC(C)=O)C(=O)O[C@@H](C)[C@@H]1OCC(C)C [Cmpd 30, ((2-(((3S,8S,9R,10S)-9-isobutoxy-10-methyl-2-oxo-8-propyloxecan-3-yl)carbamoyl)-4-methoxypyridin-3-yl)oxy)methyl acetate]					> 80%	< 80%	< 80%	< 80%
CCOCC(=O)OCOc1c(OC)ccnc1C(=O)N[C@H]1CCCC[C@H](CC2CCCC2)[C@@H](Oc2ccccc2)[C@H](C)OC1=O [Compound 51, ((2-(((3S,8R,9R,10S)-8-(cyclopentylmethyl)-10-methyl-2-oxo-9-phenoxyoxecan-3-yl)carbamoyl)-4-methoxypyridin-3-yl)oxy)methyl 2-ethoxyacetate]					> 80%	< 80%	> 80%	
COc1ccc(CO[C@H]2[C@H](C)OC(=O)[C@@H](NC(=O)c3nccc(OC)c3OCOC(C)=O)CCOC[C@@H]2OCc2ccc(OC)cc2)cc1 [Compound 32]						< 80%		< 80%
CC[C@H]1CCOC[C@H](NC(=O)c2nccc(OC)c2OCOC(C)=O)C(=O)O[C@@H](C)[C@@H]1Oc1ccccc1 [Compound 69]					> 80%	> 80%	> 80%	> 80%
CCOCC(=O)OCOc1c(OC)ccnc1C(=O)N[C@H]1CCCC[C@H](CC2CCCC2)[C@@H](OC(=O)C(C)C)[C@H](C)OC1=O [Compound 55]					> 80%	< 80%	< 80%	< 80%
COc1ccnc(C(=O)N[C@H]2CCOC[C@H](Oc3ccccc3)[C@@H](Oc3ccccc3)[C@H](C)OC2=O)c1OC(C)=O [Compound 47]					> 80%	> 80%	> 80%	> 80%

Source: US20180002320A1, “USE OF MACROCYCLIC PICOLINAMIDES AS FUNGICIDES” (DOW AGROSCIENCES LLC, priority 2014, published 2018)
